Experimental data as given in the kinase profiling compilation of Christmann-Franck et al. (2016).

Tests used:
Assay in all cases: radiometric filter-binding kinase assay
CHEK2 (human) = CHEK2 (human) (UniProt O96017)
PAK4 (human) = PAK4 (human) (UniProt O96013)
SYK (human) = SYK (human) (UniProt P43405)
PRKACA (human) = PRKACA (human) (UniProt P17612)
MARK2 (human) = MARK2 (human) (UniProt Q7KZI7)
MAPK12 (human) = MAPK12 (human) (UniProt P53778)
CaMK1 (human) = CaMK1 (human) (UniProt Q14012)
IKBKE (human) = IKBKE (human) (UniProt Q14164)
PRKAA1 or PRKAA2 (rat) = settings: accession and sequence are those of the human protein
NUAK1 (human) = NUAK1 (human) (UniProt O60285)
MAPK10 (human) = MAPK10 (human) (UniProt P53779)
HIPK2 (human) = HIPK2 (human) (UniProt Q9H2X6)
[1] = tested on: AKT1 (human), P31749 [S473D]
MAP3K11 (human) = MAP3K11 (human) (UniProt Q16584)
DYRK1A (human) = DYRK1A (human) (UniProt Q13627)
PLK1 (human) = PLK1 (human) (UniProt P53350)
MST4 (human) = MST4 (human) (UniProt Q9P289)
PAK7 (human) = PAK7 (human) (UniProt Q9P286)
MAPKAPK3 (human) = MAPKAPK3 (human) (UniProt Q16644)
MAPK3 (human) = MAPK3 (human) (UniProt P27361)
BRSK2 (human) = BRSK2 (human) (UniProt Q8IWQ3)
MAPK13 (human) = MAPK13 (human) (UniProt O15264)
MKNK1 (human) = MKNK1 (human) (UniProt Q9BUB5)
ERBB4 (human) = ERBB4 (human) (UniProt Q15303)
[2] = tested on: SGK1 (human), O00141 [S422D]
MAPK8 (human) = MAPK8 (human) (UniProt P45983)
DYRK2 (human) = DYRK2 (human) (UniProt Q92630)
AURKA (human) = AURKA (human) (UniProt O14965)
MAPK1 (human) = MAPK1 (human) (UniProt P28482)
PRKCA (human) = PRKCA (human) (UniProt P17252)
EPHB3 (human) = EPHB3 (human) (UniProt P54753)
NEK2 (human) = NEK2 (human) (UniProt P51955)
EPHB2 (human) = EPHB2 (human) (UniProt P29323)
MAP2K6 (human) = MAP2K6 (human) (UniProt P52564)
RPS6KA1 KD1 KD2 (human) = RPS6KA1 KD1 KD2 (human) (UniProt Q15418)

Chain of MAPK13 (human) (O15264 whole entry, looked up): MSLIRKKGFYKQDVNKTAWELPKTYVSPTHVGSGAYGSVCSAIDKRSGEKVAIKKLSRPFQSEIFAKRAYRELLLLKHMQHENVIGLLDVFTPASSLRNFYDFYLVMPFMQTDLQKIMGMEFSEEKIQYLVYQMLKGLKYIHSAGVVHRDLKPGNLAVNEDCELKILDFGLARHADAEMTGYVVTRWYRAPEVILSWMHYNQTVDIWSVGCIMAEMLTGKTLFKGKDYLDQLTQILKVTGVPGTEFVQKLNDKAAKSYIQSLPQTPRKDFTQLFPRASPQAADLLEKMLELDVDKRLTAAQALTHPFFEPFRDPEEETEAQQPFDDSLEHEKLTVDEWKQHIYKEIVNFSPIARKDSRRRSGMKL
Chain of NUAK1 (human) (O60285 whole entry, looked up): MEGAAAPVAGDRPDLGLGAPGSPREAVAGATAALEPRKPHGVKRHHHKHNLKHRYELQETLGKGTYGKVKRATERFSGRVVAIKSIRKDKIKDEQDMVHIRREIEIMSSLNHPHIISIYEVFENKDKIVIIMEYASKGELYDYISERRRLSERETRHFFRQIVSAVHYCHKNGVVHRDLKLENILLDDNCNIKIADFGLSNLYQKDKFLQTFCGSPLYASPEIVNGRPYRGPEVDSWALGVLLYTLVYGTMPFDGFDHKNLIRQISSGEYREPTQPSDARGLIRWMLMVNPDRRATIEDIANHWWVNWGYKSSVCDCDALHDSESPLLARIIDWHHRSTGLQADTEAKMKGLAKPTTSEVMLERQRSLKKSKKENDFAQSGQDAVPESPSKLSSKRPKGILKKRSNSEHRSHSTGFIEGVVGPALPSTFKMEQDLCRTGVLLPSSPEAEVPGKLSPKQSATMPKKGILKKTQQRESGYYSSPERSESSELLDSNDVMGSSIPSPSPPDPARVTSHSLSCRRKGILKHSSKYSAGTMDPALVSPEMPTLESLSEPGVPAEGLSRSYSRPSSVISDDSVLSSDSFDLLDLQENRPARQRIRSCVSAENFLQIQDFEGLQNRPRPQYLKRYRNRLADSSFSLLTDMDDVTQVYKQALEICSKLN
Chain of MARK2 (human) (Q7KZI7 whole entry, looked up): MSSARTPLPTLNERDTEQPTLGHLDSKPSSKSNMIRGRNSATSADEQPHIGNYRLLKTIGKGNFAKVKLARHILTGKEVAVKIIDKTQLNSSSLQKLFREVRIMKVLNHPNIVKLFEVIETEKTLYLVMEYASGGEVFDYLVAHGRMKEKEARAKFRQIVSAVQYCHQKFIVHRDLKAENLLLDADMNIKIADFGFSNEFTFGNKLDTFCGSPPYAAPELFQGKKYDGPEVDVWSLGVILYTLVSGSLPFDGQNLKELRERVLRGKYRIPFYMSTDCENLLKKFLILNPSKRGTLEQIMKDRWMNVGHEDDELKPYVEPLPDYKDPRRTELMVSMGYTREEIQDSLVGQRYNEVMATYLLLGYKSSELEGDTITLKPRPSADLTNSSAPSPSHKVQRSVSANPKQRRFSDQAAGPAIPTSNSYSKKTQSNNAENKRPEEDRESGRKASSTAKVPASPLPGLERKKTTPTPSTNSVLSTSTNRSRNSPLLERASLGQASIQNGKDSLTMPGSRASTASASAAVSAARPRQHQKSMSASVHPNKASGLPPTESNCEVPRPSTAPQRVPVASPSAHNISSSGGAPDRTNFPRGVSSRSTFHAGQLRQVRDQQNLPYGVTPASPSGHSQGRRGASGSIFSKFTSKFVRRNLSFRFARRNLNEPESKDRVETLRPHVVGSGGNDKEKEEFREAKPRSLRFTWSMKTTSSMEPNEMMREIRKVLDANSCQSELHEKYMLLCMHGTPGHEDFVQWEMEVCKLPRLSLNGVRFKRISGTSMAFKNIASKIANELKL
Chain of MAPK1 (human) (P28482 whole entry, looked up): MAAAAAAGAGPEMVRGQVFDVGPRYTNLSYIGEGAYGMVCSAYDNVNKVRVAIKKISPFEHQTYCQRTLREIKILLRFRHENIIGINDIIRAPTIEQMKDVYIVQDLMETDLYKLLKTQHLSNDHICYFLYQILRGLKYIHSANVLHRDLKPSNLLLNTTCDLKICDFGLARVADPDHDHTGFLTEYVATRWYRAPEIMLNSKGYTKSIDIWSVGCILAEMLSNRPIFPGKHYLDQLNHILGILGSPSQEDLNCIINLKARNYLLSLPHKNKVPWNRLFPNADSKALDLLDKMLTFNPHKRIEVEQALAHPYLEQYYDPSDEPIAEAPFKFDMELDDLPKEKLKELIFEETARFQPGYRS
Chain of AKT1 (human), P31749 [S473D] (P31749 whole entry S473D, looked up): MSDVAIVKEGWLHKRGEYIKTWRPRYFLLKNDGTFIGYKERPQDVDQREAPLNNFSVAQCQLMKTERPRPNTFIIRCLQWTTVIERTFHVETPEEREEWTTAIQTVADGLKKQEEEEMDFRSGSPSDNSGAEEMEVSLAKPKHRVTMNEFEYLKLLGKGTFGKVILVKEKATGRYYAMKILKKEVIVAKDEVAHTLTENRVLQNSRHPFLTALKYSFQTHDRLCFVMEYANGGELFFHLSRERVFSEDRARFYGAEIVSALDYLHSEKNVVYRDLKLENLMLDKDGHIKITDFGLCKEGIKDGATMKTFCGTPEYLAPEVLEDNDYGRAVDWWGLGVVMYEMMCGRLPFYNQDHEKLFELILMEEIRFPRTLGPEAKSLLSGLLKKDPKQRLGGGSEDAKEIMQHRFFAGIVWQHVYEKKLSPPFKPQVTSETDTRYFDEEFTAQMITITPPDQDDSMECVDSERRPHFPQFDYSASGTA
Chain of MAP3K11 (human) (Q16584 whole entry, looked up): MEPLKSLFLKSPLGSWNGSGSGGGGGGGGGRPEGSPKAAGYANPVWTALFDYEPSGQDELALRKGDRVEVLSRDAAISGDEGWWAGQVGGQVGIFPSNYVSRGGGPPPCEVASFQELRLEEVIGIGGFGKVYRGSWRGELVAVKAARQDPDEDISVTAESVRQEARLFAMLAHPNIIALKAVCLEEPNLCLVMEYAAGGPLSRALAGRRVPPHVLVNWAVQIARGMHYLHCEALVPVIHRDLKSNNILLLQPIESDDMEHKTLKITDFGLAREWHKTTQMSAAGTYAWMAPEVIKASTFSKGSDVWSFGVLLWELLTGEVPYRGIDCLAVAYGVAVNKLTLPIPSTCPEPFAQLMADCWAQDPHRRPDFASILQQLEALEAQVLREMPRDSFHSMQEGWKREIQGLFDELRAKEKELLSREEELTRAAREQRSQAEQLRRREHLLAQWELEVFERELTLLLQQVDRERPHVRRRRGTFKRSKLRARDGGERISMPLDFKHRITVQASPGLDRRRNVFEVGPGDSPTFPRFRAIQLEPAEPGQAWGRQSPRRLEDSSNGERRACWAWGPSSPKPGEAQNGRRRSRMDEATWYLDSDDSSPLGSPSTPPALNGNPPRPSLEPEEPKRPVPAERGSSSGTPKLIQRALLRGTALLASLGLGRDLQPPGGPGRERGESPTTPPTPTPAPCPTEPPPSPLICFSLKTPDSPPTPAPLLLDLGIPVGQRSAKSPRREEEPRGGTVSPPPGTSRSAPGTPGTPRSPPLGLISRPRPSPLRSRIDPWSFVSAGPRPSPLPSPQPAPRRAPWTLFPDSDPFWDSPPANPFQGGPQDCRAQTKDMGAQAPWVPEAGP
Chain of DYRK2 (human) (Q92630 whole entry, looked up): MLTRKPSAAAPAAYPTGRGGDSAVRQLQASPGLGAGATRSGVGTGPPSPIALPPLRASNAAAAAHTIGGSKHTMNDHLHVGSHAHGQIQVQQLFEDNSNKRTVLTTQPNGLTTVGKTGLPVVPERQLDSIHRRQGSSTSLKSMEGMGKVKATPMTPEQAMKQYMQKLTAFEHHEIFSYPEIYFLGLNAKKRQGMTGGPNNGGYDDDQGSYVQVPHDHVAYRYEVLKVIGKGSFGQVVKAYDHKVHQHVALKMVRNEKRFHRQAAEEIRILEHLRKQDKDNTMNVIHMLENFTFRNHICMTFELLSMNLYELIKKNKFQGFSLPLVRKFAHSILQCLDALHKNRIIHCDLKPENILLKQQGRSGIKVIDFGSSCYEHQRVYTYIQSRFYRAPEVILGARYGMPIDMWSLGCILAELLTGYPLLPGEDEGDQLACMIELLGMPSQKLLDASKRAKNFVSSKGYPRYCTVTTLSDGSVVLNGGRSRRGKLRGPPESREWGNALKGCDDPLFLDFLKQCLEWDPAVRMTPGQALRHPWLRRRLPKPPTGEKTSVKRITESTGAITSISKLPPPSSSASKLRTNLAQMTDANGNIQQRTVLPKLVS
Chain of MAPK12 (human) (P53778 whole entry, looked up): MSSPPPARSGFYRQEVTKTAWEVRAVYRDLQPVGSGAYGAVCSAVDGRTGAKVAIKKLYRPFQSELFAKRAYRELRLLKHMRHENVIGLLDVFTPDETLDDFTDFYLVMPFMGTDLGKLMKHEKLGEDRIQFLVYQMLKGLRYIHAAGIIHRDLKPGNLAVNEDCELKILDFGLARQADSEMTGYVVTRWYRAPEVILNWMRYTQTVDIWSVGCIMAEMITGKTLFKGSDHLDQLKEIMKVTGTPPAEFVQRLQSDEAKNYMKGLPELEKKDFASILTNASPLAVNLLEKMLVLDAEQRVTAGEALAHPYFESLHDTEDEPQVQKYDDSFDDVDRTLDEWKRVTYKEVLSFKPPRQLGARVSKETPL
Chain of CHEK2 (human) (O96017 whole entry, looked up): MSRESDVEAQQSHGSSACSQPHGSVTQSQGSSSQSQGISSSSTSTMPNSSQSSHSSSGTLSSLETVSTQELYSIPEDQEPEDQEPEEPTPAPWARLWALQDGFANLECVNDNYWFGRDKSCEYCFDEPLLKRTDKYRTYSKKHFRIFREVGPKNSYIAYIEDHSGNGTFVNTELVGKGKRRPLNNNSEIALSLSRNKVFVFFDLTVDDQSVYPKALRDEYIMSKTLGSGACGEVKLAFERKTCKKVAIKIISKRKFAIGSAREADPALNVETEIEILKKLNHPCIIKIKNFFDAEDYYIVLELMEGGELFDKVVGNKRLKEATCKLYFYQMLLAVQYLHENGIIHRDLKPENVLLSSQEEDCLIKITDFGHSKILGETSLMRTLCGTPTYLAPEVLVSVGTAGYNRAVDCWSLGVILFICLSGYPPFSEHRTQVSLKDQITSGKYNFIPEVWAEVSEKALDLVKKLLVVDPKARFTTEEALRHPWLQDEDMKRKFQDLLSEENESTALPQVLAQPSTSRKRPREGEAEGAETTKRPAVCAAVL

Question: FC(F)(F)c1ccc(-c2ccc(Oc3cncc4sc(-c5nn[nH]n5)cc34)cc2)cc1 was tested. Which residual activity (CHEK2 (human); compound 1.0 µM) did it give?
Answer: 102%

Question: And the residual activity (CHEK2 (human); compound 10.0 µM)?
Answer: 37%

Question: And the residual activity (PAK4 (human); compound 1.0 µM)?
Answer: 121%

Question: And the residual activity (PAK4 (human); compound 10.0 µM)?
Answer: 97%

Question: And the residual activity (SYK (human); compound 1.0 µM)?
Answer: 114%

Question: What about the residual activity (SYK (human); compound 10.0 µM) of the same compound?
Answer: 102%

Question: What about the residual activity (PRKACA (human); compound 1.0 µM) of the same compound?
Answer: 101%

Question: What about the residual activity (PRKACA (human); compound 10.0 µM) of the same compound?
Answer: 89%

Question: What about the residual activity (MARK2 (human); compound 1.0 µM) of the same compound?
Answer: 83%

Question: What about the residual activity (MARK2 (human); compound 10.0 µM) of the same compound?
Answer: 84%

Question: What about the residual activity (MAPK12 (human); compound 1.0 µM) of the same compound?
Answer: 91%

Question: What about the residual activity (MAPK12 (human); compound 10.0 µM) of the same compound?
Answer: 73%

Question: And the residual activity (CaMK1 (human); compound 1.0 µM)?
Answer: 93%

Question: And the residual activity (CaMK1 (human); compound 10.0 µM)?
Answer: 73%

Question: And the residual activity (IKBKE (human); compound 1.0 µM)?
Answer: 109%

Question: What about the residual activity (IKBKE (human); compound 10.0 µM) of the same compound?
Answer: 60%

Question: What about the residual activity (PRKAA1 or PRKAA2 (rat); compound 1.0 µM) of the same compound?
Answer: 81%

Question: What about the residual activity (PRKAA1 or PRKAA2 (rat); compound 10.0 µM) of the same compound?
Answer: 51%

Question: What about the residual activity (NUAK1 (human); compound 1.0 µM) of the same compound?
Answer: 128%

Question: What about the residual activity (NUAK1 (human); compound 10.0 µM) of the same compound?
Answer: 88%

Question: And the residual activity (MAPK10 (human); compound 1.0 µM)?
Answer: 85%

Question: What about the residual activity (MAPK10 (human); compound 10.0 µM) of the same compound?
Answer: 96%

Question: And the residual activity (HIPK2 (human); compound 1.0 µM)?
Answer: 22%

Question: And the residual activity (HIPK2 (human); compound 10.0 µM)?
Answer: 11%

Question: What about the residual activity ([1]; compound 1.0 µM) of the same compound?
Answer: 99%

Question: And the residual activity ([1]; compound 10.0 µM)?
Answer: 73%

Question: What about the residual activity (MAP3K11 (human); compound 1.0 µM) of the same compound?
Answer: 91%

Question: What about the residual activity (MAP3K11 (human); compound 10.0 µM) of the same compound?
Answer: 61%

Question: What about the residual activity (DYRK1A (human); compound 1.0 µM) of the same compound?
Answer: 27%

Question: What about the residual activity (DYRK1A (human); compound 10.0 µM) of the same compound?
Answer: 5%

Question: And the residual activity (PLK1 (human); compound 1.0 µM)?
Answer: 83%

Question: And the residual activity (PLK1 (human); compound 10.0 µM)?
Answer: 16%

Question: What about the residual activity (MST4 (human); compound 1.0 µM) of the same compound?
Answer: 118%

Question: What about the residual activity (MST4 (human); compound 10.0 µM) of the same compound?
Answer: 71%

Question: What about the residual activity (PAK7 (human); compound 1.0 µM) of the same compound?
Answer: 103%

Question: And the residual activity (PAK7 (human); compound 10.0 µM)?
Answer: 94%

Question: And the residual activity (MAPKAPK3 (human); compound 1.0 µM)?
Answer: 109%

Question: And the residual activity (MAPKAPK3 (human); compound 10.0 µM)?
Answer: 95%

Question: And the residual activity (MAPK3 (human); compound 1.0 µM)?
Answer: 101%

Question: And the residual activity (MAPK3 (human); compound 10.0 µM)?
Answer: 82%

Question: What about the residual activity (BRSK2 (human); compound 1.0 µM) of the same compound?
Answer: 115%

Question: And the residual activity (BRSK2 (human); compound 10.0 µM)?
Answer: 105%

Question: What about the residual activity (MAPK13 (human); compound 1.0 µM) of the same compound?
Answer: 113%

Question: And the residual activity (MAPK13 (human); compound 10.0 µM)?
Answer: 77%

Question: And the residual activity (MKNK1 (human); compound 1.0 µM)?
Answer: 89%

Question: What about the residual activity (MKNK1 (human); compound 10.0 µM) of the same compound?
Answer: 55%

Question: And the residual activity (ERBB4 (human); compound 1.0 µM)?
Answer: 94%

Question: What about the residual activity (ERBB4 (human); compound 10.0 µM) of the same compound?
Answer: 89%

Question: What about the residual activity ([2]; compound 1.0 µM) of the same compound?
Answer: 93%

Question: What about the residual activity ([2]; compound 10.0 µM) of the same compound?
Answer: 39%

Question: And the residual activity (MAPK8 (human); compound 1.0 µM)?
Answer: 103%

Question: And the residual activity (MAPK8 (human); compound 10.0 µM)?
Answer: 101%

Question: And the residual activity (DYRK2 (human); compound 1.0 µM)?
Answer: 16%

Question: And the residual activity (DYRK2 (human); compound 10.0 µM)?
Answer: 3%

Question: What about the residual activity (AURKA (human); compound 1.0 µM) of the same compound?
Answer: 108%

Question: What about the residual activity (AURKA (human); compound 10.0 µM) of the same compound?
Answer: 63%

Question: What about the residual activity (MAPK1 (human); compound 1.0 µM) of the same compound?
Answer: 114%

Question: And the residual activity (MAPK1 (human); compound 10.0 µM)?
Answer: 95%

Question: What about the residual activity (PRKCA (human); compound 1.0 µM) of the same compound?
Answer: 107%

Question: What about the residual activity (PRKCA (human); compound 10.0 µM) of the same compound?
Answer: 59%

Question: And the residual activity (EPHB3 (human); compound 1.0 µM)?
Answer: 122%

Question: And the residual activity (EPHB3 (human); compound 10.0 µM)?
Answer: 104%

Question: What about the residual activity (NEK2 (human); compound 1.0 µM) of the same compound?
Answer: 108%

Question: What about the residual activity (NEK2 (human); compound 10.0 µM) of the same compound?
Answer: 113%

Question: And the residual activity (EPHB2 (human); compound 1.0 µM)?
Answer: 111%

Question: What about the residual activity (EPHB2 (human); compound 10.0 µM) of the same compound?
Answer: 120%

Question: What about the residual activity (MAP2K6 (human); compound 1.0 µM) of the same compound?
Answer: 94%

Question: What about the residual activity (MAP2K6 (human); compound 10.0 µM) of the same compound?
Answer: 100%

Question: And the residual activity (RPS6KA1 KD1 KD2 (human); compound 1.0 µM)?
Answer: 122%

Question: What about the residual activity (RPS6KA1 KD1 KD2 (human); compound 10.0 µM) of the same compound?
Answer: 57%
